Key:
Format in all cases: functional, Homo sapiens
Conditions in all cases: Homo sapiens, read-out: Cell Viability; for viability at 10 µM: Concentration 10 uM; for viability at 1 µM: Concentration 1 uM
[1] = tested on: Colon cancer organoid; assay: Targeting of F14 CAF-induced therapy resistance in O14 CRC organoid-stroma co-culture. Cell viability is reported without Gefitinib.
[2] = tested on: Colon cancer organoid; assay: Targeting of F14 CAF-induced therapy resistance in O23 CRC organoid-stroma co-culture. Cell viability is reported without Gefitinib.
[3] = tested on: Colon cancer organoid; assay: Targeting of F14 CAF-induced therapy resistance in O14 CRC organoid-stroma co-culture. Cell viability is reported with Gefitinib.
[4] = tested on: Colon cancer organoid; assay: Targeting of F14 CAF-induced therapy resistance in O23 CRC organoid-stroma co-culture. Cell viability is reported with Gefitinib.
[5] = tested on: Colon cancer organoid; assay: Targeting of F14 CAF-induced therapy resistance in O23 CRC organoid-stroma co-culture. Cell viability is reported with SN-38.

Structure (SMILES)	viability at 10 µM [1] [%]	viability at 10 µM [2] [%]	viability at 10 µM [3] [%]	viability at 10 µM [4] [%]	viability at 10 µM [5] [%]	viability at 1 µM [1] [%]	viability at 1 µM [2] [%]	viability at 1 µM [3] [%]	viability at 1 µM [4] [%]	viability at 1 µM [5] [%]
Cc1cc(-n2nc(Cc3cc(F)cc(C(F)(F)F)c3)nc2C)ccc1C(N)=O [TP-024]	110	153	49.8	79	81	–	–	–	–	–
Cc1nc(Cc2cccc(C(F)(F)F)c2)sc1-c1ccc(C(N)=O)nc1 [TP-024n]	–	–	–	–	–	123	178	81.1	43.7	93.5
CN1C(=O)[C@@H](N2CCc3cn(Cc4ccccc4)nc3C2=O)COc2ccccc21 [TP-030-1]	–	–	–	–	–	125	138	40.8	56	66.7
CN1C(=O)[C@@H](N2CCc3c(nn(Cc4ccccc4)c3Br)C2=O)COc2ccccc21 [TP-030-2]	–	–	–	–	–	113	165	31.6	83.4	63.7
CC1CCN(c2ccnc(NCc3cn(C)cn3)n2)CC1 [TP-040]	128	107	55	81.4	62.9	–	–	–	–	–
CN1CCN(c2ccnc(NCCc3ccccc3)n2)CC1 [TP-040n]	192	177	66.3	100	89.4	–	–	–	–	–
CC(=O)Nc1cccc(-n2c(=O)n(C3CC3)c(=O)c3c(Nc4ccc(I)cc4F)n(C)c(=O)c(C)c32)c1 [TRAMETINIB]	1.6	1.69	0.402	1.61	1.6	–	–	–	–	–
Cc1ccc2[nH]c(CNCCCc3ccncc3)cc(=O)c2c1 [UCSF924NC]	127	95.8	33.3	37.3	52.3	–	–	–	–	–
Cc1ccc2nc(CNCCCOc3ccccc3)cc(O)c2c1 [UCSF924]	105	119	36.6	48.9	63.9	–	–	–	–	–
CNC(=O)c1ccccc1Nc1cc(Nc2ccc(N3CCOCC3)cc2OC)ncc1C(F)(F)F [VS-4718]	25.2	22.4	5.44	4.5	19.3	–	–	–	–	–
O=C(NNS(=O)(=O)c1ccccc1F)c1cc(F)cc(-c2ccccn2)c1 [WM-1119]	41	121	19.4	40.5	57.2	–	–	–	–	–
O=C(NNS(=O)(=O)c1ccccc1)c1cc(-c2ccnnc2)ccc1F [WM-2474]	77.4	75.6	30.5	61.3	54.2	–	–	–	–	–
Nc1nc(NCc2ccccc2)nc(-c2cccc(CO)c2)n1 [ZINC32547799]	76	139	31.3	75.9	119	–	–	–	–	–

Reference: ChEMBL document CHEMBL5608113, “Targeting of CAF-induced therapy resistance in CRC organoid-stroma co-cultures” (2024)
